Measured values: US20030040485A1, “alpha/beta-adrenoceptors blockers and angiotensin converting enzyme inhibitors derived from hydroxyphenyl carboxylic acid and alcohol” (priority 2001, published 2003)

Columns and labels:
[1] = tested on: β2-adrenoceptor (trachea); assay: β2-adrenoceptor antagonism, trachea, pA2; parameters: species or system rat; settings: Schild plot, mean ± SEM of six to eight experiments
Procedure: (§1) When the spontaneously beating rate of right atria reached a certain stability, cumulative administration of L-isoproterenol from 1×10^−10˜3×10^−10 M caused the heart rate to increase continuously, and a cumulative dose-response curve was obtained. Then the L-isoproterenol was thoroughly washed off with Kreb's solution to recover the right atria's heart rate stability. After the equilibrum was reached again for at least 60 minutes, different concentrations (10^−7, 10^−6, 10^−5 M) of compounds were added. 30 minutes later, cumulative administration of L-isoproterenol from 1×10^−10˜3×10^−10 M were carried out again, and another new cumulative dose-response curve was obtained. Administration of L-isoproterenol started from concentration 1×10^−10 M, and the concentration was raised 0.5 log each time for a total of six times. Cumulative administration interval was when the previous concentration reached its greatest effect, the next concentration would be immediately given. […] In other groups of rats, after separate administration of test compounds, their pA2 values were obtained.
pA2=−Log KB Log(DRADJ−1)=n log[B]−LogKB

[2] = tested on: β1-adrenoceptor (right atrium); assay: β1-adrenoceptor antagonism, spontaneously beating right atrium, pA2 vs L-isoproterenol; settings: for β1/β2 Ratio: antilogarithm of difference between mean pA2 of right atrium and trachea; for β1 pA2 value, Right atrium: Schild plot, mean ± SEM of six to eight experiments
Procedure: The spontaneously-beating right atria was clipped on both end by heart shaped clips, where one end was fixed at the bottom of 10 ml of tissue bath made of physiological saline solution, and temperature maintained at 37° C. The other end of the atria was connected to a force transducer, and isometric contractions and beating rate of the right atria were recorded by COULBOURN AT-High-Speed VideoFigure. After the samples were given 250 mg of contractions and reach equilibrium the following experiments were carried out:
as §1
pA2=−Log KB Log(DRADJ−1)=n log[B]−LogKB

[3] = target: T1, angiotensin converting enzyme (ACE) (Rattus norvegicus, UniProt P47820); assay: ACE inhibitory activity in rat serum (Hycor kit, [3H]-hippuryl-glycyl-glycine); assay type: biochemical; settings: mean of three samples
T1 construct: from tissue; host or cells: rat serum
T1 sequence (P47820 36-1238 limits assumed): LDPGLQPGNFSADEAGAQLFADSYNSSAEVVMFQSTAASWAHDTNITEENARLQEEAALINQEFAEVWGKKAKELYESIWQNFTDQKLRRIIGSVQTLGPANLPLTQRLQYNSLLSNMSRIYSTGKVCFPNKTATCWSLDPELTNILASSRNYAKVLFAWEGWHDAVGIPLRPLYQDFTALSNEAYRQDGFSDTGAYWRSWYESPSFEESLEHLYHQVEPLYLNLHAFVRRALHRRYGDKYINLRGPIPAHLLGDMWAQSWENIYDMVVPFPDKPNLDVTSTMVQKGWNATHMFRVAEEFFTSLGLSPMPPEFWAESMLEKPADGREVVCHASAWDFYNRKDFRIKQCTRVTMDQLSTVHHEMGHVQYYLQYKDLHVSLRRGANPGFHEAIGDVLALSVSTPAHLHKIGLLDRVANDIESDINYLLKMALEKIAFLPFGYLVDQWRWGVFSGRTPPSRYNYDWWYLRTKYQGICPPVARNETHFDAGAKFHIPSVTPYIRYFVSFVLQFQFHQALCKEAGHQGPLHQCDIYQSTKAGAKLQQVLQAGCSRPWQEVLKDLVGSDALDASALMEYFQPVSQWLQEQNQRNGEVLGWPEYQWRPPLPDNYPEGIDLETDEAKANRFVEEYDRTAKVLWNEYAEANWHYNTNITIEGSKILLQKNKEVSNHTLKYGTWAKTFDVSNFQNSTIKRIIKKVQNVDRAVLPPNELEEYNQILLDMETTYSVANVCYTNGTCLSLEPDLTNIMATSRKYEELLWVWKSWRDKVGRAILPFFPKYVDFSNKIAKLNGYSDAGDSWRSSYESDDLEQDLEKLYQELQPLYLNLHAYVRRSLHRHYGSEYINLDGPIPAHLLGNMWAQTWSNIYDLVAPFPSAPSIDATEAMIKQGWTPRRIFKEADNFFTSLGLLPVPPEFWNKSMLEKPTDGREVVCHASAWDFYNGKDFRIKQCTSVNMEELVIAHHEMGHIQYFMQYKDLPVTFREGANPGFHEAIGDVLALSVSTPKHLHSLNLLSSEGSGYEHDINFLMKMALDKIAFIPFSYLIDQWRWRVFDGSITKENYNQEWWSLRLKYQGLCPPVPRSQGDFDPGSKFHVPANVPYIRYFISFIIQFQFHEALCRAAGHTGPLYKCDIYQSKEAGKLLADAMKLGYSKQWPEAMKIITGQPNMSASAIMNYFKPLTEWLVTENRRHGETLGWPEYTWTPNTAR
Procedure: ACE value in serum was determined by Hycor kit, rat serum were cultured in 37° C. of [^3H]-hippuryl-glycyl-glycine for 60 minutes. While [^3H]-hippuryl-glycyl-glycine contains three peptide. [^3H] hippuric acid was obtained when extracted of culture solution with ethyl acetate, the content be determined by spectrophotometer. The content in serum sample was as the control group after it was added with 10^−8M, 10^−7M, 10^−6M compounds, then dissolved in PBS.

Structure (SMILES)	β2 pA2 value, Trachea [1]	β1/β2 Ratio [2]	β1 pA2 value, Right atrium [2]	Inhibitory activity of ACE, In Rat Serum ([3]; 10^−6M)	Inhibitory activity of ACE, In Rat Serum ([3]; 10^−7M)	Inhibitory activity of ACE, In Rat Serum ([3]; 10^−8M)
CCOC(=O)C(CCc1ccc(OCC(O)CNCCOc2ccccc2OC)cc1)NC(C)C(=O)N1CCCC1C(=O)O (mixture of isomers) [compound 6, Labetapril]	5.43	1.4	5.41	81%	67%	28%
CCOC(=O)C(CCc1ccccc1)NC(C)C(=O)N1CCCC1C(=O)OCc1ccc(OCC(O)CNC(C)(C)C)c(OC)c1 (stereo not drawn) [compound 7, Vanynolpril]	5.64	1.9	5.87	83%	74%	35%
